Patent US12458650B2, “Urination disorder-improving agent” (ASKA Pharmaceutical Co., Ltd., priority 2019, dated 2025)

Key:
[1] = tested on: model of a urination disorder associated with streptozocin-induced diabetes; test: Test Example 6: urination disorder model associated with streptozocin-induced diabetes, compound A versus dutasteride; type: in vivo, rat
Method: As described below, a model of a urination disorder associated with streptozocin-induced diabetes was prepared as a urination disorder model in accordance with Test Example 4 to evaluate the effects of the compound A and the compound C on a urination disorder. This model has no benign prostatic hyperplasia and is a model of a urination disorder associated with neuropathy and smooth muscle contraction disorder.
The body weights of Rats (male, Crl:CD(SD), 5-week-old; Charles River Laboratories Japan, Inc.) were measured. On the basis of the body weight, the rats were grouped or divided into two (2) groups. The day after the rats were grouped, a fist group received intraperitoneal administration of a citrate buffer (pH 4.5) (10 mL/kg) having a concentration of 0.1 mmol/L, and a second group received intraperitoneal administration of streptozocin (STZ; Sigma-Aldrich) (50 mg/kg). Streptozocin (STZ) was administered in the form of a solution of streptozocin having a concentration of 5 mg/mL in the citrate buffer.
About one (1) week after streptozocin (STZ) was administered, the body weight and the fasting blood glucose were measured. In the streptozocin (STZ) administration group (the second group), individuals having a fasting blood glucose level of not less than 300 mg/dL were used as animals with induced diabetes. These animals with induced diabetes are a model having no abnormality of the prostate (having no benign prostatic hyperplasia). On the basis of the body weight and the fasting blood glucose level, the animals (models) with induced diabetes were grouped or divided into three (3) groups by randomized, multivariable block allocation.
To the three model groups with induced diabetes, a 0.5 v/v % Polysorbate 80 solution (0.5% P) (10 mL/kg), the compound A (3 mg/kg), and the compound C (dutasteride) (0.3 mg/kg) were orally administered, respectively, wherein the administration schedule in all groups was a frequency of once a day, only on weekdays, over four (4) weeks. Moreover, to the above-mentioned first group, a 0.5 v/v % Polysorbate 80 solution (0.5% P) (10 mL/kg) was orally administered in the same administration schedule (normal group). On the last day of administration, a cannula was inserted into and secured to the dome of the bladder under isoflurane anesthesia, and cystometry (Cystometogram, CMG) was conducted in the order of under awake condition and under urethane anesthesia to measure the intravesical pressure, the voided volume, and the residual urine volume. After the completion of the measurement, the blood was collected under deep isoflurane anesthesia, and then the prostate (ventral prostate, dorsolateral prostate) was extracted and each was weighed. Moreover, the blood glucose level in the collected blood was measured.
The test substances and the dosage in the test system (rats having the urination disorder associated with diabetes) are as follows. • Normal group: citrate buffer 10 mL/kg (intraperitoneal administration), 0.5% P 10 mL/kg (oral administration) (n=10) • Solvent group (control group): STZ 50 mg/kg (intraperitoneal administration), 0.5% P 10 mL/kg (oral administration) (n=10) • Group A3: STZ 50 mg/kg (intraperitoneal administration), Compound A 3 mg/kg (oral administration) (n=10) • Group C0.3: STZ 50 mg/kg (intraperitoneal administration), Compound C (dutasteride) 0.3 mg/kg (oral administration) (n=10)
Urination parameter: In the same manner as in Test Example 4, the residual urine volume (mL) and the urination efficiency % were determined as urination parameters in each urination, and the average value of two measurements was taken as a measured value of each individual.
Prostate weight: In the same manner as in Test Example 4, the weight of the prostate (ventral prostate, dorsolateral prostate, and whole) was converted to a tissue weight per 100 g of the body weight. […]

[2] = tested on: lower urinary tract obstruction model of rats; test: Test Example 1: urination function in female rat lower urinary tract obstruction model (cystometry, tissue wet weights, survival); type: in vivo; details: Group A: 10 mg/kg oral once a day, 2 weeks
Source text: A lower urinary tract obstruction model of rats was used as a test system. A test substance was orally administered to the lower urinary tract obstruction model repeatedly over two (2) weeks to examine the action on the urination function in the lower urinary tract obstruction model.
More specifically, the rats (female, Crl:CD(SD), 8-week-old; Charles River Laboratories Japan, Inc.) were operated to form lower urinary tract obstruction and repeatedly received oral administration of the test substance at a frequency of once a day over two (2) weeks. After the completion of the administration, each rat was subjected to bladder catheterization under anesthesia, cystometry under no anesthesia, then cystometry under urethane anesthesia, and euthanasia under deep anesthesia, and the tissues (bladder, kidney) of the rat were extracted or surgically removed. As a normal group, the rats without operation for forming lower urinary tract obstruction were used.
The test system, the test substances, and the dosage are as follows. • Normal group: 0.5 v/v. Polysorbate 80 solution, 10 mL/kg (n=6) • Solvent group (control group): 0.5 v/v % Polysorbate 80 solution, 10 mL/kg (n=15) • Group A: Compound A, 10 mg/kg (n=15) • Group B3: Compound B, 3 mg/kg (n=7) • Group B10: Compound B, 10 mg/kg (n=7)
The residual urine volume, the urination efficiency, and the bladder capacity were measured as follows.
After urination, the residual urine was aspirated from the outlet end of the catheter placed in the bladder to measure the volume (mL) of the residual urine.
After urination, the weight of the voided urine was measured to determine the voided volume (g=mL), and then the urination efficiency was calculated by the following equation: Urination efficiency (%)=[(Voided volume (mL))/(Voided volume (mL)+Residual urine volume (mL))]×100 [Bladder Capacity]
The bladder capacity was calculated from the voided volume and the residual urine volume by the following equation: Bladder capacity(mL)=Voided volume (mL)+Residual urine volume (mL)
Moreover, the wet weight of the extracted bladder and that of the extracted kidney were measured.

[3] = Group A3: 3 mg/kg oral, 4 weeks, relative to solvent group

Which “therapeutic effect on diabetes (blood glucose level)” value ([1]; Group A3: 3 mg/kg oral, 4 weeks) does the source give for CC(=O)O[C@]1(C(C)=O)C[C@@H](O)[C@H]2[C@@H]3C=C(Cl)C4=CC(=O)OC[C@]4(C)[C@H]3CC[C@@]21C [Compound A, 17α-acetoxy-6-chloro-15β-hydroxy-2-oxa-4,6-pregnadiene-3,20-dione] here?
Its value is “no therapeutic effect on diabetes”.

What about the “Dorsolateral prostate (atrophy rate)” value [1, 3] of the same molecule?
Its value is “(40.2%)”.

What about the “Ventral prostate (atrophy rate)” value [1, 3] of the same molecule?
The value was “(40.0%)”.

What about the “Whole prostate (atrophy rate)” value [1, 3] of the same molecule?
Its value is “(40.1%)”.

What about the residual urine volume ([1]; Group A3: 3 mg/kg, cystometry under awake condition, vs solvent group (p<0.05), FIG. 19) of the same molecule?
The residual urine volume was “significantly decreased”.

What about the urination efficiency ([1]; Group A3: 3 mg/kg, cystometry under awake condition, vs solvent group (p<0.05), FIG. 20) of the same molecule?
The urination efficiency was “significantly improved”.

And the “bladder contraction force on urination by nomogram analysis” value ([1]; Group A3: 3 mg/kg, in comparison with the solvent group and Group C0.3, FIG. 21)?
The value was “strong bladder contraction force”.

What about the bladder wet weight ([2]; FIG. 4) of the same molecule?
The bladder wet weight was “significantly inhibiting the increase”.

And the kidney wet weight ([2]; FIG. 5)?
Its kidney wet weight is “significantly inhibiting the increase”.

What about the survival rate ([2]; FIG. 6) of the same molecule?
The survival rate was “no decrease”.

What about the residual urine volume ([2]; vs control (solvent) group, FIG. 1) of the same molecule?
Its residual urine volume is “significantly decreased”.

And the urination efficiency ([2]; vs control group, FIG. 2)?
Its urination efficiency is “increased”.

And the bladder capacity ([2]; vs control group, FIG. 3)?
The bladder capacity was “significantly decreased”.
